Active and inactive are the calls of the source. How the calls were made is not given here. A value given as a limit tells only on which side of the number the result lay.

This assay concerns prostate cells, cell count (flow cytometry events), cytotoxicity. In words: cell killing in prostate cells – flow cytometry event count, cytotoxicity control for prostate cell differentiation activator project, dose response (AID 1200).
As for `COc1ccc(-c2cc(C(F)(F)F)nc(N3CCN(Cc4ccccc4)CC3)n2)cc1OC`, the EC50 is 9.88 µM (inactive). The figure for `COc1ccc(CCn2c(=N)c(C(=O)NCc3ccco3)cc3c(=O)n4ccccc4nc32)cc1` is 10.2 µM (inactive); for `CN(C)CCCN1c2ccccc2CCc2ccc(Cl)cc21` it is 5.46 µM; for `Cc1ccccc1-c1nc(CN2CCC(C(=O)NCCCN3CCCC3)CC2)c(C)o1` it is 0.358 µM (inactive). The figure for `Cc1cc2c(=O)n(CC(=O)N3CCN(c4ccccc4)CC3)cnc2s1` is 0.0344 µM (inactive). `CCN1CCCC1CNC(=O)c1cc2c(-c3ccc(Cl)cc3)nn(C)c2s1` (stereo not given): the EC50 is 4.83 µM.

As to `CCOC(=O)c1[nH]c(C)c(C(=O)N2CCc3ccccc32)c1C`, the EC50 is 0.139 µM. The value for `COc1ccc(CCN2CCC(Nc3nc4ccccc4n3Cc3ccc(F)cc3)CC2)cc1` was 7.83 µM (inactive); that for `CC(C)(C)c1ccc(C(O)CCCN2CCC(C(O)(c3ccccc3)c3ccccc3)CC2)cc1` (stereo not given) was 0.00318 µM (inactive). The figure for `CN1CCN(CCCNC(=O)c2cc3c(-c4ccc(Cl)cc4)nn(C)c3s2)CC1` is 4.25 µM; for `CN(C)c1ccc(CNC2CC(C)(C)NC(C)(C)C2)cc1` it is > 30 µM (inactive). The value for `Nc1ccc(-n2ccnc2)cc1` was 1.04 µM (inactive); that for `CCN1CCN(c2cc(C)c3cc(NC(=O)c4ccc(Br)o4)ccc3n2)CC1` was 3.98 µM; that for `CN(CC(O)COc1ccc(OCC(O)CN(C)C2CCCCC2)cc1)C1CCCCC1` (stereo not given) was 0.424 µM.

As for `COc1cc2nc(N3CCN(C(=O)C4COc5ccccc5O4)CC3)nc(N)c2cc1OC` (stereo not given), the EC50 is 9.6 µM (inactive). As to `Cn1c(C(=O)NCCCN2CCN(c3cccc(Cl)c3)CC2)cc2c(=O)n(C)c3ccccc3c21`, the EC50 was 5.27 µM. The figure for `O=C(NCCCN1CCN(c2ccc(F)cc2)CC1)c1cccc(N2CCCC2=O)c1` is 0.441 µM (inactive). The value for `CCN1CCN(CCNC(=O)C2CCN(Cc3nc(-c4ccc(Cl)cc4)oc3C)CC2)CC1` was 8.88 µM (inactive); that for `COc1ccc(-c2ccc(-c3noc(-c4ccccc4)n3)c(OC)n2)cc1` was 3.16 µM (inactive); that for `Cc1ccc(Cl)cc1N1CCN(C(=O)c2cc3c(=O)n(C)c4ccccc4c3n2C)CC1` was 0.155 µM.

Consider `O=C(NCCCN1CCN(c2cccc(Cl)c2)CC1)c1cccc(N2CCCC2=O)c1`, for which the concentration giving a half-maximal response (EC50) is 11.2 µM. For the compound `CCN1CCN(c2ncc(C(=O)Nc3cc(Cl)c(OC)cc3OC)c3ccccc23)CC1`, the EC50 was 2.94 µM. The figure for `COc1ccc(N2CCN(CCCNC(=O)CC3Oc4ccc(C)cc4NC3=O)CC2)cc1` (stereo not given) is 3.54 µM (inactive); for `COc1ccccc1N1CCN(Cc2cc(Br)c(O)c3ncccc23)CC1` it is 1.09 µM; for `Cc1ccc2c(c1)-c1c(cnn1CC(=O)Nc1ccccc1N1CCN(C)CC1)CO2` it is 9.77 µM. On to `CCn1c(=O)cc(SCC(=O)NCCN2CCN(Cc3ccccc3)CC2)c2ccccc21`, for which the EC50 was 14.5 µM (inactive). As to `Cc1cccc(-c2nsc(SCC(=O)Nc3nccs3)n2)c1`, the EC50 is 3.45 µM (inactive). In the case of `CCOC(=O)c1ccccc1NC(=O)Cn1c(-c2nonc2N)nc2ccccc21`, the EC50 was 0.137 µM. Consider `Cc1cc(N2CCN(C)CC2)nc2ccc(NC(=O)c3ccc(Br)o3)cc12`, for which the EC50 was 8.72 µM.

As to `COc1ccc(N2CCN(CCCNC(=O)c3cc4sccc4n3C)CC2)cc1`, the EC50 was 10.1 µM (inactive). The figure for `CCN1CCN(C(c2cccs2)C(C)NS(=O)(=O)c2ccc(Br)cc2)CC1` (stereo not given) is 10.1 µM (inactive); for `COc1ccc(-c2oc3ncn(CCN4CCOCC4)c(=N)c3c2-c2ccc(OC)cc2)cc1` it is 3.2 µM. In the case of `COC(=O)c1cc(-c2ccccc2)sc1NC(=O)c1cc(C)on1`, the EC50 is 0.326 µM (inactive). The value for `O=C(CCN1C(=O)COc2ccccc21)NCCCN1CCN(c2ccc(F)cc2)CC1` was > 30 µM (inactive); that for `Cn1nc(-c2ccc(Cl)cc2)c2cc(C(=O)NCCCN3CCOCC3)sc21` was 10.1 µM (inactive).

For the origin of these results see PubChem BioAssay AID1200 (NMMLSC, 2008).
